In ChEMBL document CHEMBL4813989, “Design, synthesis, and biological evaluation of nitroisoxazole-containing spiro[pyrrolidin-oxindole] derivatives as novel glutathione peroxidase 4/mouse double minute 2 dual inhibitors that inhibit breast adenocarcinoma cell proliferation” (Eur J Med Chem, 2021):
pIC50, pKi: −log10 of the molar value. Calls of active or inactive are those of the source. The calls are words filed in the database; no cut-off is given here.

Columns and labels:
MCF7 [1] = test: Induction of apoptosis in human MCF7 cells assessed as necrotic cells at 0.1 uM incubated for 48 hrs by annexin-V-FITC and PI staining based flow cytometry analysis (reference value: 3.21 %); assay type: functional
MCF7 [2] = test: Induction of LPO production in human MCF7 cells at 1 uM in presence of Fer-1 by C11-BODIPY staining based confocal laser scanning microscopic analysis; assay type: functional, cell-based
Mus musculus = test: In vivo induction of apoptosis in human MCF7 cells xenografted in BALB/c mouse assessed as increase in TUNEL expression at 25 to 50 mg/kg, ip administered once for 17 days by immunohistochemical analysis; assay type: functional, organism-based; settings: dose 25-50 mg/kg, time 17.0 day
[3] = biological target: T1, Phospholipid hydroperoxide glutathione peroxidase GPX4 (Homo sapiens) (UniProt P36969); test: Binding affinity in GPX4 in human MCF7 cells assessed as increase in stability in 60 and 65 degreeC at 100 uM by cellular thermal shift assay; assay type: cell-based
T1 sequence (whole entry): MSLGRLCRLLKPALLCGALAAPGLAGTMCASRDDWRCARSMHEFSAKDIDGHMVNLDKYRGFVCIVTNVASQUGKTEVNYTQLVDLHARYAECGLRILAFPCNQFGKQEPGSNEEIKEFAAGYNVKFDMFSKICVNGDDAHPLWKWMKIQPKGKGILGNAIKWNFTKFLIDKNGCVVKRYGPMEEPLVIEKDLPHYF

MCF7 [4] = test: Induction of apoptosis in human MCF7 cells assessed as late apoptotic cells at 1 uM incubated for 48 hrs in presence of Fer-1 by annexin-V-FITC and PI staining based flow cytometry analysis (reference value: […] %); assay type: functional
MCF7 [5] = test: Induction of apoptosis in human MCF7 cells assessed as early apoptotic cells at 0.1 uM incubated for 48 hrs by annexin-V-FITC and PI staining based flow cytometry analysis (reference value: 1.05 %); assay type: functional
MCF7 [6] = test: Induction of ROS production in human MCF7 cells at 1 uM by DCFH-DA assay; assay type: functional, cell-based
MCF7 [7] = test: Induction of apoptosis in human MCF7 cells assessed as late apoptotic cells at 0.1 uM incubated for 48 hrs by annexin-V-FITC and PI staining based flow cytometry analysis (reference value: 2.61 %); assay type: functional
MCF7 [8] = test: Induction of apoptosis in human MCF7 cells assessed as viable cells at 1 uM incubated for 48 hrs in presence of Fer-1 by annexin-V-FITC and PI staining based flow cytometry analysis (reference value: 93.1 %); assay type: functional; settings: read-out: Activity
MCF7 [9] = test: Antiproliferative activity against human MCF7 cells assessed as reduction in cell growth incubated for 48 hrs in presence of Fer-1 by CCK8 assay; settings: MCF7, 48 h
[10] = biological target: E3 ubiquitin-protein ligase Mdm2 (Mus musculus) (UniProt P23804); test: In vivo inhibition of MDM2 in human MCF7 cells xenografted in BALB/c mouse assessed as increase in p53 expression at 25 to 50 mg/kg, ip administered once for 17 days by immunofluorescence analysis; assay type: functional, organism-based; settings: dose 25-50 mg/kg, time 17.0 day
[11] = Toxicity in BALB/c mouse xenografted with human MCF7 cells assessed as effect on body weight at 25 to 50 mg/kg, ip administered once for 17 days; assay type: organism-based; settings: in vivo, 408 h, dose 25-50 mg/kg, time 17 day
[12] = biological target: T1, Phospholipid hydroperoxide glutathione peroxidase GPX4 (Homo sapiens); test: Inhibition of GPX4 in human MCF7 cells assessed as increase in GPX4 degradation incubated for 48 hrs by Western blot analysis; assay type: cell-based; settings: dose 0.1-2 µM
MCF7 [13] = test: Induction of ROS production in human MCF7 cells at 1 uM in presence of Fer-1 by DCFH-DA assay; assay type: functional, cell-based
MCF7 [14] = test: Induction of apoptosis in human MCF7 cells assessed as increase in cleaved caspase-9 level at 2 uM incubated for 48 hrs by Western blot analysis; assay type: functional, cell-based
MCF7 [15] = test: Induction of apoptosis in human MCF7 cells assessed as early apoptotic cells at 1 uM incubated for 48 hrs in presence of Fer-1 by annexin-V-FITC and PI staining based flow cytometry analysis (reference value: 1.05 %); assay type: functional
MCF7 [16] = test: Induction of apoptosis in human MCF7 cells assessed as late apoptotic cells at 1 uM incubated for 48 hrs by annexin-V-FITC and PI staining based flow cytometry analysis (reference value: 2.61 %); assay type: functional
MCF7 [17] = test: Induction of apoptosis in human MCF7 cells assessed as late apoptotic cells at 0.5 uM incubated for 48 hrs by annexin-V-FITC and PI staining based flow cytometry analysis (reference value: 2.61 %); assay type: functional
MCF7 [18] = test: Induction of apoptosis in human MCF7 cells assessed as early apoptotic cells at 0.5 uM incubated for 48 hrs by annexin-V-FITC and PI staining based flow cytometry analysis (reference value: 1.05 %); assay type: functional
MCF7 [19] = test: Induction of apoptosis in human MCF7 cells assessed as necrotic cells at 0.5 uM incubated for 48 hrs by annexin-V-FITC and PI staining based flow cytometry analysis (reference value: 3.21 %); assay type: functional
MCF7 [20] = test: Antiproliferative activity against human MCF7 cells assessed as reduction in cell growth incubated for 48 hrs by CCK8 assay; settings: MCF7, 48 h
MCF7 [21] = test: Induction of apoptosis in human MCF7 cells assessed as viable cells at 0.5 uM incubated for 48 hrs by annexin-V-FITC and PI staining based flow cytometry analysis (reference value: 93.1 %); assay type: functional; settings: read-out: Activity
[22] = biological target: T2, E3 ubiquitin-protein ligase Mdm2 (Homo sapiens, UniProt Q00987); test: Inhibition of MDM2 in human MCF7 cells assessed as increase in p53 accumulation at 0.5 to 2 uM incubated for 48 hrs by Western blot analysis; assay type: cell-based; settings: dose 0.5-2 µM
Target sequence in this assay (Q00987 whole entry, looked up): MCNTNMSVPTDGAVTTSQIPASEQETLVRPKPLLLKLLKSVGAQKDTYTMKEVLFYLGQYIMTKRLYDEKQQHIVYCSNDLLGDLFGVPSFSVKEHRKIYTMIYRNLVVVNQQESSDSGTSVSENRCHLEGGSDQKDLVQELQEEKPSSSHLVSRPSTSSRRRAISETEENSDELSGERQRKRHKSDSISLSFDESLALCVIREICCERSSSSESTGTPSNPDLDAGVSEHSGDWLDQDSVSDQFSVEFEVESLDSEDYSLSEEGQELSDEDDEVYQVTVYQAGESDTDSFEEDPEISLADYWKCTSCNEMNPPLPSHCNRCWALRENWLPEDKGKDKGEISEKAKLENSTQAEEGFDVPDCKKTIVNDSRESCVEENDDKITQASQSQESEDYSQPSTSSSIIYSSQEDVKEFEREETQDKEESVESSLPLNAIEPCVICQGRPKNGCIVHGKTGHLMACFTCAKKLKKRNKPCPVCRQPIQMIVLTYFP

MCF7 [23] = test: Induction of apoptosis in human MCF7 cells assessed as viable cells at 1 uM incubated for 48 hrs by annexin-V-FITC and PI staining based flow cytometry analysis (reference value: 93.1 %); assay type: functional; settings: read-out: Activity
MCF7 [24] = test: Induction of apoptosis in human MCF7 cells assessed as necrotic cells at 1 uM incubated for 48 hrs in presence of Fer-1 by annexin-V-FITC and PI staining based flow cytometry analysis (reference value: 3.21 %); assay type: functional
[25] = biological target: T2, E3 ubiquitin-protein ligase Mdm2; test: Inhibition of MDM2 (unknown origin) using peptide as substrate incubated for 30 mins by fluorescence polarization assay
Target sequence in this assay (Q00987 whole entry): as the sequence (Q00987 whole entry, looked up) above

MCF7 [26] = test: Induction of apoptosis in human MCF7 cells assessed as necrotic cells at 1 uM incubated for 48 hrs by annexin-V-FITC and PI staining based flow cytometry analysis (reference value: 3.21 %); assay type: functional
[27] = biological target: T2, E3 ubiquitin-protein ligase Mdm2; test: Inhibition of MDM2 in human MCF7 cells assessed as increase in MDM2 accumulation at 0.5 to 2 uM incubated for 48 hrs by Western blot analysis; assay type: cell-based; settings: dose 0.5-2 µM
Target sequence in this assay (Q00987 whole entry, looked up): as above

MCF7 [28] = test: Antitumor activity against human MCF7 cells xenografted in BALB/c mouse assessed as reduction in Ki-67 expression at 25 to 50 mg/kg, ip administered once for 17 days by immunohistochemical analysis; assay type: functional, organism-based; settings: dose 25-50 mg/kg, time 17.0 day
MCF-10A = test: Cytotoxicity against human MCF-10A cells assessed as reduction in cell viability incubated for 48 hrs by CCK8 assay; assay type: cell-based
MCF7 [29] = test: Induction of apoptosis in human MCF7 cells assessed as viable cells at 0.1 uM incubated for 48 hrs by annexin-V-FITC and PI staining based flow cytometry analysis (reference value: 93.1 %); assay type: functional; settings: read-out: Activity
MCF7 [30] = test: Induction of apoptosis in human MCF7 cells assessed as early apoptotic cells at 1 uM incubated for 48 hrs by annexin-V-FITC and PI staining based flow cytometry analysis (reference value: 1.05 %); assay type: functional
MCF7 [31] = test: Induction of LPO production in human MCF7 cells at 1 uM by C11-BODIPY staining based confocal laser scanning microscopic analysis; assay type: functional, cell-based
MCF7 [32] = test: Antitumor activity against human MCF7 cells xenografted in BALB/c mouse assessed as tumor growth inhibition at 25 to 50 mg/kg, ip administered once for 17 days; assay type: functional, organism-based; settings: dose 25-50 mg/kg, time 17.0 day

Chain of E3 ubiquitin-protein ligase Mdm2 (Mus musculus) (P23804 whole entry): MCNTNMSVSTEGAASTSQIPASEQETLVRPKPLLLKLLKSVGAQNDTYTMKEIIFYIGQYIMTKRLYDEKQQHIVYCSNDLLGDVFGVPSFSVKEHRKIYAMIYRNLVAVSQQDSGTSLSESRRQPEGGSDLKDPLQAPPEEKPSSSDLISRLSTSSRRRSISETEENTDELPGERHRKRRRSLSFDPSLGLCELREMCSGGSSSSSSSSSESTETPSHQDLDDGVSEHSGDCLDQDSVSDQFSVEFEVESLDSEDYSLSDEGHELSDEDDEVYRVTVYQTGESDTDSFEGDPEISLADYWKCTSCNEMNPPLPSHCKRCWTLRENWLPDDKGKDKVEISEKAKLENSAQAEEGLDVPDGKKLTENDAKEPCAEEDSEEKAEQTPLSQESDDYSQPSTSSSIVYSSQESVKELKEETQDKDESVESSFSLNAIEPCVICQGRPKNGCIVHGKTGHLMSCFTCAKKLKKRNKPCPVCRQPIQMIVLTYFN

In the case of `Cc1noc([C@@H]2[C@@H](c3ccccc3)[C@H](C(F)(F)F)N[C@@]23C(=O)Nc2cc(Cl)ccc23)c1[N+](=O)[O-]`, the Activity (MCF7 [1]) was 4.51%, the Activity (MCF7 [2]) was “inactive” and the Activity (Mus musculus) was “Active”. For the same compound, the Activity [3] was “Active”, the Activity (MCF7 [4]) was 4.71% and the Activity (MCF7 [5]) was 1.39%. The Activity (MCF7 [6]) was “Active”, the Activity (MCF7 [7]) was 2.85% and the viability at 1 µM (MCF7 [8]) was 84%. The pIC50 (MCF7 [9]) was 4.87, the inhibition [10] was “Active” and the Activity [11] was “Non-Toxic”. The inhibition [12] was “Active”, the Activity (MCF7 [13]) was “inactive” and the Activity (MCF7 [14]) was “Active”. It also gave an Activity (MCF7 [15]) of 7.98%, an Activity (MCF7 [16]) of 4.91% and an Activity (MCF7 [17]) of 3.16%. The Activity (MCF7 [18]) was 7.81%, the Activity (MCF7 [19]) was 5.25% and the pIC50 (MCF7 [20]) was 6.92. For the same compound, the viability at 0.5 µM (MCF7 [21]) was 83.8%, the inhibition [22] was “Active” and the viability at 1 µM (MCF7 [23]) was 81.2%. For the same compound, the Activity (MCF7 [24]) was 3.35%, the pKi [25] was 6.62 and the Activity (MCF7 [26]) was 2.61%. For the same compound, the inhibition [27] was “Active”, the Activity (MCF7 [28]) was “Active” and the Activity (MCF-10A) was “Non-Toxic”. The viability at 0.1 µM (MCF7 [29]) was 91.3%, the Activity (MCF7 [30]) was 11.3% and the Activity (MCF7 [31]) was “Active”. For the same compound, the TGI (MCF7 [32]) was “Active”.
